Results as given in patent US12686682B2, “Indazole acetylene derivatives” (Hoffmann-La Roche Inc., priority 2020, dated 2026).

Target: T1, Phospho EGFR LRCS (BaF3-LRCS cell line) (Homo sapiens, UniProt P00533, C797S/L858R)
T1 construct: host or cells: BaF3 (BaF3-LRCS), kept under puromycin selection
Experiment: HTRF Phospho EGFR LRCS Assay (Cellular)
Assay type: cell-based
Details: BaF3-LRCS cells, 4 hours incubation, HTRF phospho-EGFR readout
Description: HTRF Phospho EGFR LRCS Assay (Cellular)
BaF3-LRCS cell line were obtained from Crownbio (San Diego, CA, USA). Cells were maintained at 37° C., 5% C02 in RPMI ATCC (Gibco 31870)+2 mM Glutamine+0.5 μg/ml Puromycin supplemented with 10% fetal bovine serum (FBS) (Gibco).
Cells are transferred as above to Greiner Bio-One, Nr. 784-08 micro-titerplate at 20000 cells/well in 12.5 μl of growth medium/well after the plates had been pre-filled with 12.5 nl of DMSO solutions of the to be tested compounds (in dose response) or DMSO only. After spinning the plates at 300×g for 30 seconds the cells were incubated for 4 hours at 37 C, 5% C02, 95% humidity. The cells were lysed by adding to the compound mix 4 µl/well of the supplemented lysis buffer (Cis-bio, Phospho-EGFR HTRF kit, 64EG1PEH), followed by incubation for 30 min at room temperature with shaking (400 rpm). The plates were then frozen and stored overnight at −80° C. On the next day and after thawing the plates, 4 μl of a mixture of anti-Phospho-EGFR Cryptate and of anti-Phospho-EGFR-d2 antibody solutions prepared in the supplied detection buffer was added to each well. The lidded plates were then incubated for 4 h at room temperature before reading the fluorescence emission at 616 and 665 nm using an Envision reader (Perkin Elmer). Data was analyzed in similar fashion as above using the normalized ratio of the 665 to 616 signals multiplied by 10000.

T1 sequence (P00533 25-1210 C797S/L858R): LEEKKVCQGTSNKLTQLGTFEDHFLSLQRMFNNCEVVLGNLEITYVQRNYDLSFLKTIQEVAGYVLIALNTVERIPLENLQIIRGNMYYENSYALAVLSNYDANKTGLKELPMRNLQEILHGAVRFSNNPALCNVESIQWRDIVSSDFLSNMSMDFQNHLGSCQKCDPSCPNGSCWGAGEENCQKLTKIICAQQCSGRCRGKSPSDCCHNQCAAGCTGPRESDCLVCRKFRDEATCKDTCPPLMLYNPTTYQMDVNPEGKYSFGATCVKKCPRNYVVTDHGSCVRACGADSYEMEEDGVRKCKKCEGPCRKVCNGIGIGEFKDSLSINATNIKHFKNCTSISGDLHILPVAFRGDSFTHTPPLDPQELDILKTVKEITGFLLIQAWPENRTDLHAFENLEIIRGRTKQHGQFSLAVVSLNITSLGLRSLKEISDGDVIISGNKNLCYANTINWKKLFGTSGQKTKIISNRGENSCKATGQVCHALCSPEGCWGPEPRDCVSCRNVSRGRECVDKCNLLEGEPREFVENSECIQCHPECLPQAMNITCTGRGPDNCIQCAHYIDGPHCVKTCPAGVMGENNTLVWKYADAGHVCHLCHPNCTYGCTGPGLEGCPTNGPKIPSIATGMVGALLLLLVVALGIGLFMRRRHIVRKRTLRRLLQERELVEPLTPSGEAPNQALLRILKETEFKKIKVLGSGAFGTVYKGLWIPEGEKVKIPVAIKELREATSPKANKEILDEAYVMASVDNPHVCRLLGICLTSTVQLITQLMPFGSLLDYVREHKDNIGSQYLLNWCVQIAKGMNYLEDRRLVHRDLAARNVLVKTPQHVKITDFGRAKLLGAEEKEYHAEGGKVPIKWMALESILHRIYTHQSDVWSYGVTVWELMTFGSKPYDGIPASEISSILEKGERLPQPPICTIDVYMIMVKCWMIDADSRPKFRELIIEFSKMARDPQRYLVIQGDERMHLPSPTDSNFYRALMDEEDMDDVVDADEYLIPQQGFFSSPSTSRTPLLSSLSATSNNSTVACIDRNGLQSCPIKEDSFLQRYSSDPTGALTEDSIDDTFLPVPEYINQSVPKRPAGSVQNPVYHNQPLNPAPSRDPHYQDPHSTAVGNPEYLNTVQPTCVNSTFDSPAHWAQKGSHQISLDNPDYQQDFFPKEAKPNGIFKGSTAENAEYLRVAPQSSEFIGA

SMILES	IC50 [µM]
Cc1c(C#Cc2ccc(CN3CCC(CO)CC3)cc2)cc(C(F)F)c2cn(C(C(=O)Nc3nccs3)c3ncn4c3C[C@@H](F)C4)nc12 (stereo partly drawn) [Example 1, 2-[4-(Difluoromethyl)-6-[2-[4-[[4-(hydroxymethyl)-1-piperidyl]methyl]phenyl]ethynyl]-7-methyl-indazol-2-yl]-2-[(6R)-6-fluoro-6,7-dihydro-5H-pyrrolo[1,2-c]imidazol-1-yl]-N-thiazol-2-yl-acetamide]	0.022
Cc1c(C#Cc2ccc(CN3CCC(CO)CC3)cc2)cc(C(F)F)c2cn(C(C(=O)Nc3nccs3)c3ncn4c3CCC4)nc12 (centres unmarked) [Example 2, 2-[4-(Difluoromethyl)-6-[2-[4-[[4-(hydroxymethyl)-1-piperidyl]methyl]phenyl]ethynyl]-7-methyl-indazol-2-yl]-2-(6,7-dihydro-5H-pyrrolo[1,2-c]imidazol-1-yl)-N-thiazol-2-yl-acetamide]	0.023
Cc1c(C#Cc2ccc(CN3CCC(CO)CC3)cc2)cc(C(F)(F)F)c2cn(C(C(=O)Nc3nccs3)c3ncn4c3C[C@@H](F)C4)nc12 (stereo partly drawn) [Example 3, 2-[(6R)-6-Fluoro-6,7-dihydro-5H-pyrrolo[1,2-c]imidazol-1-yl]-2-[6-[2-[4-[[4-(hydroxymethyl)-1-piperidyl]methyl]phenyl]ethynyl]-7-methyl-4-(trifluoromethyl)indazol-2-yl]-N-thiazol-2-yl-acetamide]	0.015
Cc1c(C#Cc2ccc(CN3CCC(CO)CC3)cc2)cc(C(F)(F)F)c2cn(C(C(=O)Nc3nccs3)c3ncn4c3CCC4)nc12 (centres unmarked) [Example 4, 2-(6,7-Dihydro-5H-pyrrolo[1,2-c]imidazol-1-yl)-2-[6-[2-[4-[[4-(hydroxymethyl)-1-piperidyl]methyl]phenyl]ethynyl]-7-methyl-4-(trifluoromethyl)indazol-2-yl]-N-thiazol-2-yl-acetamide]	0.009
Cc1c(C#Cc2ccc(CN3CCC(CO)CC3)cc2)cc(C(F)F)c2cn(C(C(=O)Nc3nccs3)c3ncn4c3CCC4(C)C)nc12 (centres unmarked) [Example 5, 2-[4-(Difluoromethyl)-6-[2-[4-[[4-(hydroxymethyl)-1-piperidyl]methyl]phenyl]ethynyl]-7-methyl-indazol-2-yl]-2-(5,5-dimethyl-6,7-dihydropyrrolo[1,2-c]imidazol-1-yl)-N-thiazol-2-yl-acetamide]	0.011
Cc1c(C#Cc2ccc(CN3CCC(CO)CC3)cc2)cc(C(F)F)c2cn(C(C(=O)Nc3nccs3)c3ncn4c3CCC43CC3)nc12 (centres unmarked) [Example 6]	0.01
Cc1c(C#Cc2ccc(CN3CCC(CO)CC3)cc2)cc(C(F)(F)F)c2cn(C(C(=O)Nc3nccs3)c3ncn4c3CCC43CC3)nc12 (centres unmarked) [Example 7]	0.011
Cc1c(C#Cc2ccc(CN3CCC(CO)CC3)cc2)cc(C(F)(F)F)c2cn(C(C(=O)Nc3nccs3)c3ncn4c3CCC4(C)C)nc12 (centres unmarked) [Example 8, 2-(5,5-Dimethyl-6,7-dihydropyrrolo[1,2-c]imidazol-1-yl)-2-[6-[2-[4-[[4-(hydroxymethyl)-1-piperidyl]methyl]phenyl]ethynyl]-7-methyl-4-(trifluoromethyl)indazol-2-yl]-N-thiazol-2-yl-acetamide]	0.012
